Measurements as given in patent publication US9932338B2, “Compounds having muscarinic receptor antagonist and BETA2 adrenergic receptor agonist activity” (CHIESI FARMACEUTICI S.P.A., priority 2015, dated 2018).

Experiments:
Human M3 receptor = target: T1, Human M3 receptor (Homo sapiens, UniProt P20309); experiment: M3 receptor radioligand binding assay; conditions: human M3 receptor membranes, [N-methyl-3H] scopolamine methyl chloride; Ki from IC50 by Cheng and Prusoff; read-out: M3 binding affinity (Ki class)
T1 construct: purchased Perkin Elmer
Experimental: Example. M3 Receptor Radioligand Binding Assay
The assay was carried out in 96-well polypropylene plates in a volume of 250 ul. […] The final assay concentration of DMSO was 0.5% (v/v). The plates were sealed and incubated for 2 hours at room temperature on an orbital shaker (slow speed). Membranes were harvested onto 96-well unifilter GF/C filter plates pre-treated with 0.5% polyethyleneimine (v/v), using a filter manifold, washed four times with 200 μl of assay buffer. The plates were dried before addition of 50 μl of microscint-0, sealed then read in a Trilux Microbeta scintillation counter. IC50 values are determined from competition curves using a non-linear curve fitting program. Ki values were calculated from IC50 values by the Cheng and Prusoff equation.

Human β2 adrenoceptor = target: T2, Human β2 adrenoceptor (Homo sapiens, UniProt P07550); experiment: β2 adrenoceptor radioligand binding assay; conditions: human β2 adrenoceptor membranes, 125-I cyanopindolol; Ki from IC50 by Cheng and Prusoff; read-out: B2 binding affinity (Ki class)
T2 construct: purchased Perkin Elmer
Experimental: Example. β2 Adrenoceptor Radioligand Binding Assay
Human β2 adrenoceptor membranes (7.5 ug/well) from Perkin Elmer were incubated with 0.3 nM 125-I Cyanopindolol with or without test compounds, or a saturating concentration of s-propranolol (2 μM) for the determination of non-specific binding. The assay was carried out in 96-well polypropylene plates in a volume of 200 ul. The assay buffer used was 25 mM HEPES, 0.5% BSA (w/v), 1 mM EDTA, 0.02% ascorbic acid (v/v), (pH 7.4). The final assay concentration of DMSO was 0.5% (v/v). The plates were sealed and incubated for 1 hour at room temperature on an orbital shaker (slow speed). Membranes were harvested onto 96-well unifilter GF/C filter plates pre-treated with 0.5% polyethyleneimine (v/v), using a filter manifold, washed six times with 200 μl of wash buffer containing 10 mM HEPES and 500 mM NaCl. The plates were dried before addition of 50 μl of microscint-0, sealed then read in a Trilux Microbeta scintillation counter. IC50 values are determined from competition curves using a non-linear curve fitting program. Ki values were calculated from IC50 values by the Cheng and Prusoff equation.

T2 sequence (P07550 whole entry): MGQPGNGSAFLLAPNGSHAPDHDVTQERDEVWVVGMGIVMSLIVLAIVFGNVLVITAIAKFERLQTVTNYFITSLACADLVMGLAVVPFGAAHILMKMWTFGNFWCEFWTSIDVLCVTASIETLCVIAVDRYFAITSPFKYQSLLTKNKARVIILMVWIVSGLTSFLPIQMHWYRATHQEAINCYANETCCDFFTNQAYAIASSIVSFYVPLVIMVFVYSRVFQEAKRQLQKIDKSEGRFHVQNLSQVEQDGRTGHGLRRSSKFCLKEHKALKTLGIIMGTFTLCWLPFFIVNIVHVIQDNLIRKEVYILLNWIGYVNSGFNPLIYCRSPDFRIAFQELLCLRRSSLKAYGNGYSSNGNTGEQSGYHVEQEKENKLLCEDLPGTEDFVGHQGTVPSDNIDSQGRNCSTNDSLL
T1 sequence (P20309 whole entry): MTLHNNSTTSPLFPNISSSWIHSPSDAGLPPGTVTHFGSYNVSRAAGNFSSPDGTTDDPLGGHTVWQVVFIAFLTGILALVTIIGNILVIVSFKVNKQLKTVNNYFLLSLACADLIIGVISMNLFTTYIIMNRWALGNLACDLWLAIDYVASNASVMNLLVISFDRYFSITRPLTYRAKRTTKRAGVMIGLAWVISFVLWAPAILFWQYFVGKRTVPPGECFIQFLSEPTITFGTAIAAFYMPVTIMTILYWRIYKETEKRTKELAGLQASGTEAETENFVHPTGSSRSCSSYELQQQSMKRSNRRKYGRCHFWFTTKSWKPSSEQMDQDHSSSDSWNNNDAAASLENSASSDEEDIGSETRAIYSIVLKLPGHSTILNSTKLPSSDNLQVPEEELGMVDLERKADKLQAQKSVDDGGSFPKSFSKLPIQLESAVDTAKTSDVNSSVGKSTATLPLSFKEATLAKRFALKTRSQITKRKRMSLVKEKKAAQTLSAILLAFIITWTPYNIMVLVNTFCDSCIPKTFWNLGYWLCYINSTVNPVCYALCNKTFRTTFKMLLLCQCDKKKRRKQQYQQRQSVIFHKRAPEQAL

| Compound | Ki (Human M3 receptor) [nM] | Ki (Human β2 adrenoceptor) [nM] |
| --- | --- | --- |
| O=C(NC1(C(=O)O[C@H]2CN3CCC2CC3)CCc2ccccc21)c1ccc(OCc2ccc(CNC[C@H](O)c3ccc(O)c4[nH]c(=O)ccc34)cc2)cc1 (stereo partly drawn) [Compound 19, (R)-quinuclidin-3-yl 1-(4-((4-((((R)-2-hydroxy-2-(8-hydroxy-2-oxo-1,2-dihydroquinolin-5-yl)ethyl)amino)methyl)benzyl)oxy)benzamido)-2,3-dihydro-1H-indene-1-carboxylate] | 1 to 10 | > 10 |
| O=C(O[C@H]1CN2CCC1CC2)C1(NCc2cccc(OCc3ccc(CNC[C@H](O)c4ccc(O)c5[nH]c(=O)ccc45)cc3)c2)CCc2ccccc21 (stereo partly drawn) [Compound 20, (R)-quinuclidin-3-yl 1-((3-((4-((((R)-2-hydroxy-2-(8-hydroxy-2-oxo-1,2-dihydroquinolin-5-yl)ethyl)amino)methyl)benzyl)oxy)benzyl)amino)-2,3-dihydro-1H-indene-1-carboxylate] | 1 to 10 | < 1 |
| O=C(O[C@H]1CN2CCC1CC2)C1(NCc2cccc(OCc3cccc(OCCCCNC[C@H](O)c4ccc(O)c5[nH]c(=O)ccc45)c3)c2)CCc2ccccc21 (stereo partly drawn) [Compound 21, (R)-quinuclidin-3-yl 1-((3-((3-(4-(((R)-2-hydroxy-2-(8-hydroxy-2-oxo-1,2-dihydroquinolin-5-yl)ethyl)amino)butoxy)benzyl)oxy)benzyl)amino)-2,3-dihydro-1H-indene-1-carboxylate] | < 1 | < 1 |
